Values of other authors as cited in patent publication US7718385B2, “Bioactivation of alkylating agents for cancer treatment” (priority 2003, dated 2010).

Tests used:
CCRF-CEM = details: cited from earlier work
NCI-H522 = details: NCI-H522, Non-Small Cell Lung, cited from earlier work
IGROVI = details: cited from earlier work
CAKI-1 = details: CAKI-1, Renal, cited from earlier work

CC1=C(CO)C2=C(C)C3(CC3)[C@@](C)(O)C(=O)C2=C1 [Irofulven, 6-hydroxymethylacylfulvene]
GI50 (CCRF-CEM; Leukemia): 2 µM | TGI (CCRF-CEM; Leukemia): 3.16E−05 | log(GI50) (CCRF-CEM; Leukemia): −5.7 | log(TGI) (CCRF-CEM; Leukemia): −4.5 | CC50 (CCRF-CEM; read-out: LC50, Leukemia): ≥ 100 µM | GI50 (NCI-H522): 0.158 µM | TGI (NCI-H522): 6.31E−07 | log(GI50) (NCI-H522): −6.8 | log(LC50) (NCI-H522): −5.1 | log(TGI) (NCI-H522): −6.2 | CC50 (NCI-H522; read-out: LC50): 7.94 µM | GI50 (IGROVI; Ovarian): 0.158 µM | TGI (IGROVI; Ovarian): 5.01E−07 | log(GI50) (IGROVI; Ovarian): −6.8 | log(LC50) (IGROVI; Ovarian): −5.2 | log(TGI) (IGROVI; Ovarian): −6.3 | CC50 (IGROVI; read-out: LC50, Ovarian): 6.31 µM | GI50 (CAKI-1): 0.251 µM | TGI (CAKI-1): 7.94E−07 | log(GI50) (CAKI-1): −6.6 | log(LC50) (CAKI-1): −4.3 | log(TGI) (CAKI-1): −6.1 | CC50 (CAKI-1; read-out: LC50): 50.1 µM
